Assay results reported in PMC12102759 (Protein Science : A Publication of the Protein Society, 2025).
Read-outs that look alike come from different tables or passages of the source.

Tested on: PABPC1 PABC
Assay type: binding, human
Conditions: DMS-BM library, bait PABPC1 PABC, row aa = residue at this position; for DMS-derived PSSM value, position R14: R = wild type
[1] = prey ATXN2, TLNPNAKEFNPRSF(averaged) over the two overlapping peptides, K = wild type
[2] = prey ATXN2, peptide TLNPNAKEFNPRSFSQ, S = wild type
[3] = prey ATXN2, TLNPNAKEFNPRSF(averaged) over the two overlapping peptides, N = wild type
[4] = prey ATXN2, peptide KSTLNPNAKEFNPRSF, F = wild type
[5] = prey ATXN2, peptide KSTLNPNAKEFNPRSF
[6] = prey ATXN2, peptide TLNPNAKEFNPRSFSQ, F = wild type
[7] = prey ATXN2, peptide KSTLNPNAKEFNPRSF, N = wild type
[8] = prey ATXN2, TLNPNAKEFNPRSF(averaged) over the two overlapping peptides, P = wild type
[9] = prey ATXN2, peptide TLNPNAKEFNPRSFSQ, T = wild type
[10] = prey ATXN2, TLNPNAKEFNPRSF(averaged) over the two overlapping peptides, F = wild type
[11] = prey ATXN2, peptide TLNPNAKEFNPRSFSQ, P = wild type
[12] = prey ATXN2, peptide KSTLNPNAKEFNPRSF, S = wild type
[13] = prey ATXN2, peptide TLNPNAKEFNPRSFSQ, N = wild type
[14] = prey ATXN2, TLNPNAKEFNPRSF(averaged) over the two overlapping peptides, A = wild type
[15] = prey ATXN2, TLNPNAKEFNPRSF(averaged) over the two overlapping peptides, E = wild type

TLNPNAKEFNPRSF(averaged) K7A (TLNPNAAEFNPRSF)
DMS-derived PSSM value (averaged), position K7 [1]: 0.1204

TLNPNAKEFNPRSFSQ S15Y (TLNPNAKEFNPRSFYQ)
DMS-derived PSSM value, position S15 [2]: 0.004758

TLNPNAKEFNPRSF(averaged) S13N (TLNPNAKEFNPRNF)
DMS-derived PSSM value (averaged), position S13 (prey ATXN2, TLNPNAKEFNPRSF(averaged) over the two overlapping peptides, S = wild type): 0.08567

TLNPNAKEFNPRSF(averaged) N5K (TLNPKAKEFNPRSF)
DMS-derived PSSM value (averaged), position N5 [3]: 0.009917

KSTLNPNAKEFNPRSF F11H (KSTLNPNAKEHNPRSF)
DMS-derived PSSM value, position F11 [4]: 0

KSTLNPNAKEFNPRSF R14V (KSTLNPNAKEFNPVSF)
DMS-derived PSSM value, position R14 [5]: 0.03521

TLNPNAKEFNPRSFSQ F9T (TLNPNAKETNPRSFSQ)
DMS-derived PSSM value, position F9 [6]: 0.05894

KSTLNPNAKEFNPRSF N12V (KSTLNPNAKEFVPRSF)
DMS-derived PSSM value, position N12 [7]: 0.2093

KSTLNPNAKEFNPRSF F16V (KSTLNPNAKEFNPRSV)
DMS-derived PSSM value, position F16 [4]: 0.175

KSTLNPNAKEFNPRSF N5G (KSTLGPNAKEFNPRSF)
DMS-derived PSSM value, position N5 [7]: 0

TLNPNAKEFNPRSF(averaged) P4M (TLNMNAKEFNPRSF)
DMS-derived PSSM value (averaged), position P4 [8]: 0.0005819

KSTLNPNAKEFNPRSF L4N (KSTNNPNAKEFNPRSF)
DMS-derived PSSM value, position L4 (prey ATXN2, peptide KSTLNPNAKEFNPRSF, L = wild type): 0

TLNPNAKEFNPRSFSQ T1Y (YLNPNAKEFNPRSFSQ)
DMS-derived PSSM value, position T1 [9]: 0.3306

KSTLNPNAKEFNPRSF N7Q (KSTLNPQAKEFNPRSF)
DMS-derived PSSM value, position N7 [7]: 0.04334

KSTLNPNAKEFNPRSF N5E (KSTLEPNAKEFNPRSF)
DMS-derived PSSM value, position N5 [7]: 0

TLNPNAKEFNPRSF(averaged) F14Q (TLNPNAKEFNPRSQ)
DMS-derived PSSM value (averaged), position F14 [10]: 0.06013

TLNPNAKEFNPRSFSQ P4H (TLNHNAKEFNPRSFSQ)
DMS-derived PSSM value, position P4 [11]: 0.0297

TLNPNAKEFNPRSFSQ F14Q (TLNPNAKEFNPRSQSQ)
DMS-derived PSSM value, position F14 [6]: 0.1174

KSTLNPNAKEFNPRSF F11Y (KSTLNPNAKEYNPRSF)
DMS-derived PSSM value, position F11 [4]: 0.3016

TLNPNAKEFNPRSF(averaged) K7L (TLNPNALEFNPRSF)
DMS-derived PSSM value (averaged), position K7 [1]: 0.03789

KSTLNPNAKEFNPRSF F11A (KSTLNPNAKEANPRSF)
DMS-derived PSSM value, position F11 [4]: 0

TLNPNAKEFNPRSFSQ T1S (SLNPNAKEFNPRSFSQ)
DMS-derived PSSM value, position T1 [9]: 0.004758

KSTLNPNAKEFNPRSF K9V (KSTLNPNAVEFNPRSF)
DMS-derived PSSM value, position K9 (prey ATXN2, peptide KSTLNPNAKEFNPRSF, K = wild type): 0.0001287

KSTLNPNAKEFNPRSF S15L (KSTLNPNAKEFNPRLF)
DMS-derived PSSM value, position S15 [12]: 0.4164

TLNPNAKEFNPRSF(averaged) N3M (TLMPNAKEFNPRSF)
DMS-derived PSSM value (averaged), position N3 [3]: 0

TLNPNAKEFNPRSF(averaged) P11I (TLNPNAKEFNIRSF)
DMS-derived PSSM value (averaged), position P11 [8]: 0.006686

KSTLNPNAKEFNPRSF N7E (KSTLNPEAKEFNPRSF)
DMS-derived PSSM value, position N7 [7]: 0.03193

TLNPNAKEFNPRSFSQ F9P (TLNPNAKEPNPRSFSQ)
DMS-derived PSSM value, position F9 [6]: 0

TLNPNAKEFNPRSF(averaged) F9T (TLNPNAKETNPRSF)
DMS-derived PSSM value (averaged), position F9 [10]: 0.02947

TLNPNAKEFNPRSF(averaged) N3L (TLLPNAKEFNPRSF)
DMS-derived PSSM value (averaged), position N3 [3]: 0

KSTLNPNAKEFNPRSF S2A (KATLNPNAKEFNPRSF)
DMS-derived PSSM value, position S2 [12]: 0.03999

TLNPNAKEFNPRSF(averaged) P11T (TLNPNAKEFNTRSF)
DMS-derived PSSM value (averaged), position P11 [8]: 0.141

TLNPNAKEFNPRSFSQ N10I (TLNPNAKEFIPRSFSQ)
DMS-derived PSSM value, position N10 [13]: 0.00743

TLNPNAKEFNPRSF(averaged) K7W (TLNPNAWEFNPRSF)
DMS-derived PSSM value (averaged), position K7 [1]: 0.01767

KSTLNPNAKEFNPRSF N7Y (KSTLNPYAKEFNPRSF)
DMS-derived PSSM value, position N7 [7]: 0.00548

TLNPNAKEFNPRSFSQ P11R (TLNPNAKEFNRRSFSQ)
DMS-derived PSSM value, position P11 [11]: 0.006355

KSTLNPNAKEFNPRSF N12S (KSTLNPNAKEFSPRSF)
DMS-derived PSSM value, position N12 [7]: 0.008786

TLNPNAKEFNPRSF(averaged) A6L (TLNPNLKEFNPRSF)
DMS-derived PSSM value (averaged), position A6 [14]: 0

TLNPNAKEFNPRSF(averaged) P11A (TLNPNAKEFNARSF)
DMS-derived PSSM value (averaged), position P11 [8]: 0.00277

TLNPNAKEFNPRSFSQ T1F (FLNPNAKEFNPRSFSQ)
DMS-derived PSSM value, position T1 [9]: 0.0001584

TLNPNAKEFNPRSF(averaged) N3G (TLGPNAKEFNPRSF)
DMS-derived PSSM value (averaged), position N3 [3]: 0

TLNPNAKEFNPRSF(averaged) A6I (TLNPNIKEFNPRSF)
DMS-derived PSSM value (averaged), position A6 [14]: 0.01774

TLNPNAKEFNPRSF(averaged) N3V (TLVPNAKEFNPRSF)
DMS-derived PSSM value (averaged), position N3 [3]: 0

TLNPNAKEFNPRSF(averaged) E8R (TLNPNAKRFNPRSF)
DMS-derived PSSM value (averaged), position E8 [15]: 0

KSTLNPNAKEFNPRSF R14N (KSTLNPNAKEFNPNSF)
DMS-derived PSSM value, position R14 [5]: 0.007229

TLNPNAKEFNPRSFSQ K7S (TLNPNASEFNPRSFSQ)
DMS-derived PSSM value, position K7 (prey ATXN2, peptide TLNPNAKEFNPRSFSQ, K = wild type): 0.01353

TLNPNAKEFNPRSF(averaged) N10R (TLNPNAKEFRPRSF)
DMS-derived PSSM value (averaged), position N10 [3]: 0.02307

TLNPNAKEFNPRSF(averaged) E8N (TLNPNAKNFNPRSF)
DMS-derived PSSM value (averaged), position E8 [15]: 0.07264

KSTLNPNAKEFNPRSF A8S (KSTLNPNSKEFNPRSF)
DMS-derived PSSM value, position A8 (prey ATXN2, peptide KSTLNPNAKEFNPRSF, A = wild type): 0

TLNPNAKEFNPRSFSQ T1A (ALNPNAKEFNPRSFSQ)
DMS-derived PSSM value, position T1 [9]: 0.03403

KSTLNPNAKEFNPRSF T3F (KSFLNPNAKEFNPRSF)
DMS-derived PSSM value, position T3 (prey ATXN2, peptide KSTLNPNAKEFNPRSF, T = wild type): 0.07157

TLNPNAKEFNPRSF(averaged) T1P (PLNPNAKEFNPRSF)
DMS-derived PSSM value (averaged), position T1 (prey ATXN2, TLNPNAKEFNPRSF(averaged) over the two overlapping peptides, T = wild type): 0.02725

KSTLNPNAKEFNPRSF P13G (KSTLNPNAKEFNGRSF)
DMS-derived PSSM value, position P13 (prey ATXN2, peptide KSTLNPNAKEFNPRSF, P = wild type): 0.05991

TLNPNAKEFNPRSFSQ F9S (TLNPNAKESNPRSFSQ)
DMS-derived PSSM value, position F9 [6]: 0

TLNPNAKEFNPRSFSQ N3R (TLRPNAKEFNPRSFSQ)
DMS-derived PSSM value, position N3 [13]: 0.02401

TLNPNAKEFNPRSFSQ F9Y (TLNPNAKEYNPRSFSQ)
DMS-derived PSSM value, position F9 [6]: 0.02013

TLNPNAKEFNPRSFSQ S13D (TLNPNAKEFNPRDFSQ)
DMS-derived PSSM value, position S13 [2]: 0.05929

TLNPNAKEFNPRSFSQ N3H (TLHPNAKEFNPRSFSQ)
DMS-derived PSSM value, position N3 [13]: 0

TLNPNAKEFNPRSF(averaged) L2T (TTNPNAKEFNPRSF)
DMS-derived PSSM value (averaged), position L2 (prey ATXN2, TLNPNAKEFNPRSF(averaged) over the two overlapping peptides, L = wild type): 0

TLNPNAKEFNPRSFSQ N5Q (TLNPQAKEFNPRSFSQ)
DMS-derived PSSM value, position N5 [13]: 0.004159

TLNPNAKEFNPRSFSQ P4F (TLNFNAKEFNPRSFSQ)
DMS-derived PSSM value, position P4 [11]: 0.01173

KSTLNPNAKEFNPRSF S15M (KSTLNPNAKEFNPRMF)
DMS-derived PSSM value, position S15 [12]: 0.01897

TLNPNAKEFNPRSFSQ L2Y (TYNPNAKEFNPRSFSQ)
DMS-derived PSSM value, position L2 (prey ATXN2, peptide TLNPNAKEFNPRSFSQ, L = wild type): 0.1104

TLNPNAKEFNPRSF(averaged) N3A (TLAPNAKEFNPRSF)
DMS-derived PSSM value (averaged), position N3 [3]: 0

TLNPNAKEFNPRSFSQ P11F (TLNPNAKEFNFRSFSQ)
DMS-derived PSSM value, position P11 [11]: 0.1255

TLNPNAKEFNPRSFSQ F14K (TLNPNAKEFNPRSKSQ)
DMS-derived PSSM value, position F14 [6]: 0.003921

KSTLNPNAKEFNPRSF N5A (KSTLAPNAKEFNPRSF)
DMS-derived PSSM value, position N5 [7]: 0

TLNPNAKEFNPRSFSQ E8L (TLNPNAKLFNPRSFSQ)
DMS-derived PSSM value, position E8 (prey ATXN2, peptide TLNPNAKEFNPRSFSQ, E = wild type): 0
